The NIST ThermoML archive (doi:10.1021/acs.jced.7b01125)
Numbers after ± are expanded uncertainties.

Assay: xn = mol fraction of the nth substance listed
Conditions: Gas, Buoyancy - hydrostatic balance with magnetic suspension - one sinker

[HH] [hydrogen] + C
Conditions | mass density [kg/m3]
250.05 K, 1999 kPa, x2 = 0.9 | 14.843 ± 0.047
250.05 K, 8002 kPa, x2 = 0.9499 | 76.259 ± 0.069
250.05 K, 10007 kPa, x2 = 0.9499 | 101.135 ± 0.074
250.05 K, 11012 kPa, x2 = 0.9499 | 113.948 ± 0.075
250.05 K, 12006 kPa, x2 = 0.9 | 113.812 ± 0.071
250.05 K, 12009 kPa, x2 = 0.9499 | 126.528 ± 0.076
250.05 K, 13012 kPa, x2 = 0.9 | 124.698 ± 0.072
250.05 K, 13015 kPa, x2 = 0.9499 | 138.84 ± 0.075
250.05 K, 14014 kPa, x2 = 0.9 | 135.178 ± 0.073
250.05 K, 14017 kPa, x2 = 0.9499 | 150.503 ± 0.073
250.05 K, 15015 kPa, x2 = 0.9 | 145.138 ± 0.073
250.05 K, 15015 kPa, x2 = 0.9499 | 161.379 ± 0.072
250.05 K, 16007 kPa, x2 = 0.9499 | 171.395 ± 0.07
250.05 K, 16018 kPa, x2 = 0.9 | 154.622 ± 0.072
250.05 K, 17011 kPa, x2 = 0.9 | 163.416 ± 0.072
250.05 K, 17022 kPa, x2 = 0.9499 | 180.83 ± 0.069
250.05 K, 18018 kPa, x2 = 0.9 | 171.725 ± 0.071
250.05 K, 18020 kPa, x2 = 0.9499 | 189.342 ± 0.068
250.05 K, 18962 kPa, x2 = 0.9499 | 196.737 ± 0.069
250.05 K, 19023 kPa, x2 = 0.9 | 179.463 ± 0.071
250.05 K, 19940 kPa, x2 = 0.9 | 186.044 ± 0.06
260.03 K, 1002 kPa, x2 = 0.4997 | 4.206 ± 0.032
260.03 K, 1977 kPa, x2 = 0.4997 | 8.33 ± 0.033
260.03 K, 3002 kPa, x2 = 0.4997 | 12.694 ± 0.035
260.03 K, 4002 kPa, x2 = 0.4997 | 16.974 ± 0.037
260.03 K, 5000 kPa, x2 = 0.4997 | 21.26 ± 0.04
260.03 K, 6003 kPa, x2 = 0.4997 | 25.579 ± 0.043
260.03 K, 7000 kPa, x2 = 0.4997 | 29.878 ± 0.047
260.03 K, 8000 kPa, x2 = 0.4997 | 34.185 ± 0.052
260.03 K, 9003 kPa, x2 = 0.4997 | 38.489 ± 0.057
260.03 K, 10005 kPa, x2 = 0.4997 | 42.775 ± 0.063
260.03 K, 11002 kPa, x2 = 0.4997 | 47.008 ± 0.069
260.03 K, 12008 kPa, x2 = 0.4997 | 51.246 ± 0.075
260.03 K, 13002 kPa, x2 = 0.4997 | 55.387 ± 0.082
260.03 K, 14009 kPa, x2 = 0.4997 | 59.544 ± 0.088
260.03 K, 15005 kPa, x2 = 0.4997 | 63.583 ± 0.094
260.03 K, 16009 kPa, x2 = 0.4997 | 67.621 ± 0.1
260.03 K, 17009 kPa, x2 = 0.4997 | 71.57 ± 0.1
260.03 K, 18006 kPa, x2 = 0.4997 | 75.418 ± 0.11
260.03 K, 19113 kPa, x2 = 0.4997 | 79.651 ± 0.11
260.04 K, 999 kPa, x2 = 0.9499 | 7.267 ± 0.045
260.04 K, 1000 kPa, x2 = 0.9 | 6.927 ± 0.043
260.04 K, 1999 kPa, x2 = 0.9499 | 14.926 ± 0.047
260.04 K, 2000 kPa, x2 = 0.9 | 14.169 ± 0.045
260.04 K, 2999 kPa, x2 = 0.9499 | 23.006 ± 0.049
260.04 K, 3001 kPa, x2 = 0.9 | 21.762 ± 0.047
260.04 K, 3999 kPa, x2 = 0.9499 | 31.515 ± 0.052
260.04 K, 5000 kPa, x2 = 0.9499 | 40.497 ± 0.054
260.04 K, 5999 kPa, x2 = 0.9499 | 49.941 ± 0.057
260.04 K, 6001 kPa, x2 = 0.9 | 46.626 ± 0.054
260.04 K, 7001 kPa, x2 = 0.9 | 55.622 ± 0.056
260.04 K, 7002 kPa, x2 = 0.9499 | 59.886 ± 0.06
260.04 K, 8003 kPa, x2 = 0.9 | 64.951 ± 0.058
260.04 K, 8003 kPa, x2 = 0.9499 | 70.258 ± 0.062
260.04 K, 9004 kPa, x2 = 0.9 | 74.538 ± 0.06
260.04 K, 9006 kPa, x2 = 0.9499 | 81.038 ± 0.064
260.04 K, 10006 kPa, x2 = 0.9 | 84.334 ± 0.062
260.04 K, 10006 kPa, x2 = 0.9499 | 92.073 ± 0.067
260.04 K, 11008 kPa, x2 = 0.9 | 94.232 ± 0.064
260.04 K, 11011 kPa, x2 = 0.9499 | 103.316 ± 0.068
260.04 K, 12013 kPa, x2 = 0.9499 | 114.514 ± 0.069
260.04 K, 13017 kPa, x2 = 0.9499 | 125.55 ± 0.069
260.04 K, 14016 kPa, x2 = 0.9499 | 136.214 ± 0.069
260.04 K, 15018 kPa, x2 = 0.9499 | 146.448 ± 0.068
260.04 K, 16023 kPa, x2 = 0.9499 | 156.169 ± 0.067
260.04 K, 17019 kPa, x2 = 0.9499 | 165.22 ± 0.066
260.04 K, 18026 kPa, x2 = 0.9499 | 173.779 ± 0.066
260.04 K, 18756 kPa, x2 = 0.9499 | 179.616 ± 0.069
260.05 K, 4000 kPa, x2 = 0.9 | 29.682 ± 0.049
260.05 K, 5000 kPa, x2 = 0.9 | 37.974 ± 0.051
260.05 K, 12009 kPa, x2 = 0.9 | 104.112 ± 0.065
260.05 K, 13009 kPa, x2 = 0.9 | 113.883 ± 0.066
260.05 K, 14013 kPa, x2 = 0.9 | 123.483 ± 0.066
260.05 K, 15017 kPa, x2 = 0.9 | 132.774 ± 0.067
260.05 K, 16016 kPa, x2 = 0.9 | 141.654 ± 0.067
260.05 K, 17013 kPa, x2 = 0.9 | 150.096 ± 0.068
260.05 K, 17614 kPa, x2 = 0.9 | 154.98 ± 0.072
275 K, 1001 kPa, x2 = 0.4997 | 3.964 ± 0.031
275 K, 2001 kPa, x2 = 0.4997 | 7.947 ± 0.032
275 K, 3002 kPa, x2 = 0.4997 | 11.95 ± 0.034
275 K, 4001 kPa, x2 = 0.4997 | 15.957 ± 0.035
275 K, 5001 kPa, x2 = 0.4997 | 19.969 ± 0.037
275 K, 6001 kPa, x2 = 0.4997 | 23.987 ± 0.041
275 K, 7001 kPa, x2 = 0.4997 | 27.997 ± 0.044
275 K, 8001 kPa, x2 = 0.4997 | 31.996 ± 0.048
275 K, 9003 kPa, x2 = 0.4997 | 35.989 ± 0.052
275 K, 10000 kPa, x2 = 0.4997 | 39.943 ± 0.057
275 K, 12001 kPa, x2 = 0.4997 | 47.79 ± 0.066
275 K, 13004 kPa, x2 = 0.4997 | 51.668 ± 0.071
275.01 K, 999 kPa, x2 = 0.9499 | 6.842 ± 0.043
275.01 K, 1000 kPa, x2 = 0.9 | 6.522 ± 0.041
275.01 K, 1999 kPa, x2 = 0.9499 | 13.98 ± 0.044
275.01 K, 2001 kPa, x2 = 0.9 | 13.293 ± 0.043
275.01 K, 2997 kPa, x2 = 0.9499 | 21.412 ± 0.046
275.01 K, 3001 kPa, x2 = 0.9 | 20.304 ± 0.044
275.01 K, 4001 kPa, x2 = 0.9 | 27.568 ± 0.046
275.01 K, 4002 kPa, x2 = 0.9499 | 29.206 ± 0.048
275.01 K, 5002 kPa, x2 = 0.9499 | 37.281 ± 0.05
